The subject of assay [1] is HT-29. Kind of assay: Cytotoxicity against human HT-29 cells after 48 hrs by XTT/PMS assay. It is filed as functional, cell-based. To be noted: HT-29, 48 h.
The subject of assay [2] is HT-29. The assay can be described thus: Selectivity index, ratio of IC50 for human PMNC cells to IC50 for human HT-29 cells. The assay is classed as functional.
Assay [3] deals with HeLa. The assay can be described thus: Cytotoxicity against human HeLa cells after 48 hrs by WST8 assay. The assay is classed as functional, cell-based.
Assay [4] concerns HeLa. The assay can be described thus: Induction of multipolar spindle formation in human HeLa cells at 7 nM by DAPI staining. It is filed as functional, cell-based.
Assay [5] deals with HeLa. The assay can be described thus: Potency index, ratio of IC50 for Plinabulin to IC50 for test compound against human HeLa cells after 48 hrs by WST8 assay. It is filed as functional. In general terms: Formazan colour is commonly taken as a measure of viable cells.
The subject of assay [6] is HT-29. Kind of assay: Selectivity index, ratio of IC50 for human NHSF46 cells to IC50 for human HT-29 cells. The assay is classed as functional.
A short description of assay [7]: Cytotoxicity against human NHSF46 cells after 48 hrs by XTT/PMS assay. The following applies: NHSF46, 48 h. It is filed as cell-based.
Assay [8] addresses T1, Tubulin (Sus scrofa, UniProt P02554+P02550). Kind of assay: Binding affinity to porcine tubulin incubated for 1 hr by spectrofluorometry. It is filed as protein assay.
Assay [9] can be described thus: Cytotoxicity against human PMNC cells after 48 hrs by WST1 assay. The assay is classed as functional, cell-based.
Assay [10] has as its system A549. Kind of assay: Cytotoxicity against human A549 cells after 48 hrs by WST8 assay. The following applies: A549, 48 h. It is filed as functional, cell-based.
In assay [11] the test system is A549. Kind of assay: Potency index, ratio of IC50 for Plinabulin to IC50 for test compound against human A549 cells after 48 hrs by WST8 assay. It is filed as functional.
For assay [12], the target named is T1, Tubulin. Kind of assay: Inhibition of porcine tubulin polymerization by spectrophotometry. It is filed as protein assay.
Assay [13] concerns HeLa. The assay can be described thus: Inhibition of mitotic spindle formation in human HeLa cells at 7 and 30 nM by DAPI staining.
Assay [14] has as its system HeLa. Kind of assay: Induction of multipolar spindle formation in human HeLa cells at 20 to 30 nM by DAPI staining. The assay is classed as functional, cell-based.

pIC50: −log10 of the molar value. Calls of active or inactive are those of the source. No cut-off for these calls is given here.

By pIC50 is commonly meant −log10 of the IC50, conventionally taken in molar units. Higher therefore signals a small IC50. In general, Kd refers to the concentration at which binding is half-saturated. A lower Kd goes with higher affinity. In general, IC50 refers to the midpoint of a concentration-inhibition curve. Low values mean higher potency, high ones lower potency.

`CC(=O)N1CC(=O)N/C(=C\c2cccc(C(=O)c3ccccc3)c2)C1=O` showed a pIC50 with HT-29 [1] of 5.06.

For `O=C(c1ccccc1)c1cccc(/C=c2\[nH]c(=O)/c(=C/c3ccccc3)[nH]c2=O)c1`, the pIC50 with HT-29 [1] is 7.03.

Consider `O=C(c1ccccc1)c1cccc(/C=c2\[nH]c(=O)/c(=C/c3ccccn3)[nH]c2=O)c1`, for which the “Ratio IC50” value in the assay on HT-29 [2] is 10; with HeLa [5], 3.8; in the assay on HT-29 [6], 10; with A549 [11], 2.5. Besides, the pIC50 in the assay with HeLa [3] is 8.27; with HT-29 [1], 8.15; in assay [7], 7.11; in assay [9], 6.32; in the assay on A549 [10], 7.85. Further, the outcome in the assay on HeLa [4] was Active. At Tubulin [8], this compound returned a Kd of 1.3 µM. The IC50 on Tubulin [12] amounted to 1.2 µM. In the assay with HeLa [13], the inhibition result was “Active”.

For `Cc1[nH]cnc1/C=c1\[nH]c(=O)/c(=C/c2cccc(C(=O)c3ccccc3)c2)[nH]c1=O`, the pIC50 with HT-29 [1] was 7.82.

In turn, `O=C(c1ccccc1)c1cccc(/C=c2\[nH]c(=O)/c(=C/c3cccnc3)[nH]c2=O)c1` gave a pIC50 with HT-29 [1] of less than 6.00.

As for `CC(C)(C)c1[nH]cnc1/C=c1\[nH]c(=O)/c(=C/c2ccccc2)[nH]c1=O` [PLINABULIN], the pIC50 was 7.69 in the assay on HeLa [3] and 7.45 in the assay on A549 [10]. The outcome with HeLa [14] was Active. This compound registered a Kd on Tubulin [8] of 1 µM. The compound also returned an IC50 on Tubulin [12] of 1.8 µM. The inhibition result in the assay with HeLa [13] is “Active”.

`O=C1CNC(=O)/C(=C/c2cccc(C(=O)c3ccccc3)c2)N1`: the pIC50 with HT-29 [1] is less than 4.70.

In the assay on HT-29 [1], `O=C(c1ccccc1)c1cccc(/C=c2\[nH]c(=O)/c(=C/c3ncccn3)[nH]c2=O)c1` had a pIC50 of 7.12.

`O=C(c1ccccc1)c1cccc(/C=c2\[nH]c(=O)/c(=C/c3ccncc3)[nH]c2=O)c1` had a pIC50 in the assay with HT-29 [1] of less than 6.00.

The values above are taken from ChEMBL document CHEMBL3352421, “Development of a new benzophenone-diketopiperazine-type potent antimicrotubule agent possessing a 2-pyridine structure” (ACS Med Chem Lett, 2014).
